Assay results as given in US10681909B2, “Herbicidal triazoles” (FMC Corporation, priority 2014, dated 2020).

How the values were obtained:
ragweed = assay: Test C postemergence; format: in vivo, Ambrosia elatior
Summary of the method: (§1)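 Pre: seeded into loam/sand, sprayed same time. Post: plants in peat moss–vermiculite mix with starter nutrients and dolomitic limestone, treated at 1- to 4-leaf stage (2 to 18 cm). Formulation: non-phytotoxic solvent blend plus surfactant.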

pigweed [1] = assay: Test C postemergence; format: in vivo, Amaranthus retroflexus
Summary of the method: as §1

lambsquarters = assay: Test C postemergence; format: in vivo, Chenopodium album
Summary of the method: as §1

pigweed [2] = assay: Test A postemergence; format: in vivo, Amaranthus retroflexus; details: 0 to 100 scale (0 no effect, 100 complete control), approx. 10 d
Summary of the method: (§2)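 For preemergence, seeds were sown in a loam soil-sand blend and given a directed soil spray of test chemical in a non-phytotoxic solvent mixture with surfactant. For postemergence, plants in pots of the same blend were sprayed with the same formulation at the one- to two-leaf stage, 2 to 10 cm tall.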

kochia = assay: Test C postemergence; format: in vivo, Kochia scoparia
Summary of the method: as §1

corn = assay: Test A postemergence; format: in vivo, Zea mays; details: 0 to 100 scale (0 no effect, 100 complete control), approx. 10 d
Summary of the method: as §2

barnyardgrass [3] = assay: Test A postemergence; format: in vivo, Echinochloa crus-galli; details: 0 to 100 scale (0 no effect, 100 complete control), approx. 10 d
Summary of the method: as §2

morningglory = assay: Test C postemergence; format: in vivo, Ipomoea coccinea
Summary of the method: as §1

wheat (winter wheat) = assay: Test C postemergence; format: in vivo, Triticum aestivum
Summary of the method: as §1

crabgrass, large = assay: Test C postemergence; format: in vivo, Digitaria sanguinalis
Summary of the method: as §1

oilseed rape = assay: Test C postemergence; format: in vivo, Brassica napus
Summary of the method: as §1

rice = assay: Test B flooded paddy test; format: in vivo, Oryza sativa; details: 250 g ai/ha, applied to paddy water at 2-leaf stage, visual rating after 13 to 15 d, scale 0 (no effect) to 100 (complete control)
Summary of the method: (§3)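 Pots were flooded to 3 cm above the soil at treatment, and compounds were applied directly into the paddy water. That depth was held throughout. After 13 to 15 d in a greenhouse, plants were rated visually against untreated controls.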

oat, wild = assay: Test C postemergence; format: in vivo, Avena fatua
Summary of the method: as §1

velvetleaf = assay: Test C postemergence; format: in vivo, Abutilon theophrasti
Summary of the method: as §1

foxtail, giant [4] = assay: Test C postemergence; format: in vivo, Setaria faberii
Summary of the method: as §1

chickweed = assay: Test C postemergence; format: in vivo, Stellaria media
Summary of the method: as §1

johnsongrass = assay: Test C postemergence; format: in vivo, Sorghum halepense
Summary of the method: as §1

foxtail, giant [5] = assay: Test A preemergence; format: in vivo, Setaria faberii; details: 0 to 100 scale (0 no effect, 100 complete control)
Summary of the method: as §2

barnyardgrass [6] = assay: Test B flooded paddy test; format: in vivo, Echinochloa crus-galli; details: 250 g ai/ha, applied to paddy water at 2-leaf stage, visual rating after 13 to 15 d, scale 0 (no effect) to 100 (complete control)
Summary of the method: as §3

nutsedge, yellow = assay: Test C postemergence; format: in vivo, Cyperus esculentus
Summary of the method: as §1

With `FC(F)(F)COc1nc(-c2ccccc2)nn1Cc1ccnc(C(F)(F)F)c1` [Compound 24] the “Plant response rating (scale of 0 to 100 where 0 is no effect and 100 is complete control)” value (ragweed; 31 g ai/ha) was 65, the “Plant response rating (scale of 0 to 100 where 0 is no effect and 100 is complete control)” value (ragweed; 62 g ai/ha) was 75 and the “Plant response rating (scale of 0 to 100 where 0 is no effect and 100 is complete control)” value (ragweed; 125 g ai/ha) was 75. The “Plant response rating (scale of 0 to 100 where 0 is no effect and 100 is complete control)” value (ragweed; 250 g ai/ha) was 75, the “Plant response rating (scale of 0 to 100 where 0 is no effect and 100 is complete control)” value (pigweed [1]; 31 g ai/ha) was 100 and the “Plant response rating (scale of 0 to 100 where 0 is no effect and 100 is complete control)” value (pigweed [1]; 62 g ai/ha) was 100. The “Plant response rating (scale of 0 to 100 where 0 is no effect and 100 is complete control)” value (pigweed [1]; 125 g ai/ha) was 100, the “Plant response rating (scale of 0 to 100 where 0 is no effect and 100 is complete control)” value (pigweed [1]; 250 g ai/ha) was 100 and the “Plant response rating (scale of 0 to 100 where 0 is no effect and 100 is complete control)” value (lambsquarters; 31 g ai/ha) was 100. For the same compound, the “Plant response rating (scale of 0 to 100 where 0 is no effect and 100 is complete control)” value (lambsquarters; 62 g ai/ha) was 100, the “Plant response rating (scale of 0 to 100 where 0 is no effect and 100 is complete control)” value (lambsquarters; 125 g ai/ha) was 100 and the “Plant response rating (scale of 0 to 100 where 0 is no effect and 100 is complete control)” value (lambsquarters; 250 g ai/ha) was 100. The “Plant response rating, Pigweed” value (pigweed [2]; 125 g ai/ha) was 90, the “Plant response rating, Pigweed” value (pigweed [2]; 500 g ai/ha) was 100 and the “Plant response rating (scale of 0 to 100 where 0 is no effect and 100 is complete control)” value (kochia; 31 g ai/ha) was 90. The “Plant response rating (scale of 0 to 100 where 0 is no effect and 100 is complete control)” value (kochia; 62 g ai/ha) was 90, the “Plant response rating (scale of 0 to 100 where 0 is no effect and 100 is complete control)” value (kochia; 125 g ai/ha) was 90 and the “Plant response rating (scale of 0 to 100 where 0 is no effect and 100 is complete control)” value (kochia; 250 g ai/ha) was 90. The “Plant response rating, Corn” value (corn; 125 g ai/ha) was 20, the “Plant response rating, Corn” value (corn; 500 g ai/ha) was 40 and the “Plant response rating, Barnyardgrass” value (barnyardgrass [3]; 125 g ai/ha) was 30. The “Plant response rating, Barnyardgrass” value (barnyardgrass [3]; 500 g ai/ha) was 70, the “Plant response rating (scale of 0 to 100 where 0 is no effect and 100 is complete control)” value (morningglory; 31 g ai/ha) was 98 and the “Plant response rating (scale of 0 to 100 where 0 is no effect and 100 is complete control)” value (morningglory; 62 g ai/ha) was 98. The “Plant response rating (scale of 0 to 100 where 0 is no effect and 100 is complete control)” value (morningglory; 125 g ai/ha) was 90, the “Plant response rating (scale of 0 to 100 where 0 is no effect and 100 is complete control)” value (morningglory; 250 g ai/ha) was 95 and the “Plant response rating (scale of 0 to 100 where 0 is no effect and 100 is complete control)” value (wheat (winter wheat); 31 g ai/ha) was 5. The “Plant response rating (scale of 0 to 100 where 0 is no effect and 100 is complete control)” value (wheat (winter wheat); 62 g ai/ha) was 5, the “Plant response rating (scale of 0 to 100 where 0 is no effect and 100 is complete control)” value (wheat (winter wheat); 125 g ai/ha) was 5 and the “Plant response rating (scale of 0 to 100 where 0 is no effect and 100 is complete control)” value (wheat (winter wheat); 250 g ai/ha) was 5. For the same compound, the “Plant response rating (scale of 0 to 100 where 0 is no effect and 100 is complete control)” value (crabgrass, large; 31 g ai/ha) was 15, the “Plant response rating (scale of 0 to 100 where 0 is no effect and 100 is complete control)” value (crabgrass, large; 62 g ai/ha) was 10 and the “Plant response rating (scale of 0 to 100 where 0 is no effect and 100 is complete control)” value (crabgrass, large; 125 g ai/ha) was 25. For the same compound, the “Plant response rating (scale of 0 to 100 where 0 is no effect and 100 is complete control)” value (crabgrass, large; 250 g ai/ha) was 35, the “Plant response rating (scale of 0 to 100 where 0 is no effect and 100 is complete control)” value (oilseed rape; Oilsee Rape, 250 g ai/ha) was 85 and the “Plant response rating (scale of 0 to 100 where 0 is no effect and 100 is complete control)” value (oilseed rape; Oilseed Rape, 31 g ai/ha) was 50. The “Plant response rating (scale of 0 to 100 where 0 is no effect and 100 is complete control)” value (oilseed rape; Oilseed Rape, 62 g ai/ha) was 80, the “Plant response rating (scale of 0 to 100 where 0 is no effect and 100 is complete control)” value (oilseed rape; Oilseed Rape, 125 g ai/ha) was 85 and the “Plant response rating, Rice, Flood” value (rice) was 0. The “Plant response rating (scale of 0 to 100 where 0 is no effect and 100 is complete control)” value (oat, wild; 31 g ai/ha) was 15, the “Plant response rating (scale of 0 to 100 where 0 is no effect and 100 is complete control)” value (oat, wild; 62 g ai/ha) was 30 and the “Plant response rating (scale of 0 to 100 where 0 is no effect and 100 is complete control)” value (oat, wild; 125 g ai/ha) was 20. The “Plant response rating (scale of 0 to 100 where 0 is no effect and 100 is complete control)” value (oat, wild; 250 g ai/ha) was 35, the “Plant response rating (scale of 0 to 100 where 0 is no effect and 100 is complete control)” value (velvetleaf; 31 g ai/ha) was 60 and the “Plant response rating (scale of 0 to 100 where 0 is no effect and 100 is complete control)” value (velvetleaf; 62 g ai/ha) was 55. The “Plant response rating (scale of 0 to 100 where 0 is no effect and 100 is complete control)” value (velvetleaf; 125 g ai/ha) was 60, the “Plant response rating (scale of 0 to 100 where 0 is no effect and 100 is complete control)” value (velvetleaf; 250 g ai/ha) was 60 and the “Plant response rating (scale of 0 to 100 where 0 is no effect and 100 is complete control)” value (foxtail, giant [4]; 31 g ai/ha) was 15. The “Plant response rating (scale of 0 to 100 where 0 is no effect and 100 is complete control)” value (foxtail, giant [4]; 62 g ai/ha) was 20, the “Plant response rating (scale of 0 to 100 where 0 is no effect and 100 is complete control)” value (foxtail, giant [4]; 125 g ai/ha) was 20 and the “Plant response rating (scale of 0 to 100 where 0 is no effect and 100 is complete control)” value (foxtail, giant [4]; 250 g ai/ha) was 20. For the same compound, the “Plant response rating (scale of 0 to 100 where 0 is no effect and 100 is complete control)” value (chickweed; 31 g ai/ha) was 55, the “Plant response rating (scale of 0 to 100 where 0 is no effect and 100 is complete control)” value (chickweed; 62 g ai/ha) was 80 and the “Plant response rating (scale of 0 to 100 where 0 is no effect and 100 is complete control)” value (chickweed; 125 g ai/ha) was 65. The “Plant response rating (scale of 0 to 100 where 0 is no effect and 100 is complete control)” value (chickweed; 250 g ai/ha) was 85, the “Plant response rating (scale of 0 to 100 where 0 is no effect and 100 is complete control)” value (johnsongrass; 31 g ai/ha) was 10 and the “Plant response rating (scale of 0 to 100 where 0 is no effect and 100 is complete control)” value (johnsongrass; 62 g ai/ha) was 20. The “Plant response rating (scale of 0 to 100 where 0 is no effect and 100 is complete control)” value (johnsongrass; 125 g ai/ha) was 10, the “Plant response rating (scale of 0 to 100 where 0 is no effect and 100 is complete control)” value (johnsongrass; 250 g ai/ha) was 20 and the “Plant response rating, Foxtail, Giant” value (foxtail, giant [5]; 125 g ai/ha) was 100. The “Plant response rating, Foxtail, Giant” value (foxtail, giant [5]; 500 g ai/ha, approx. 10 d) was 100, the “Plant response rating, Barnyardgrass, Flood” value (barnyardgrass [6]) was 30 and the “Plant response rating (scale of 0 to 100 where 0 is no effect and 100 is complete control)” value (nutsedge, yellow; 31 g ai/ha) was 15. The “Plant response rating (scale of 0 to 100 where 0 is no effect and 100 is complete control)” value (nutsedge, yellow; 62 g ai/ha) was 25, the “Plant response rating (scale of 0 to 100 where 0 is no effect and 100 is complete control)” value (nutsedge, yellow; 125 g ai/ha) was 20 and the “Plant response rating (scale of 0 to 100 where 0 is no effect and 100 is complete control)” value (nutsedge, yellow; 250 g ai/ha) was 25.
